Results reported in patent publication US6387886B1, “Method for the treatment of severe chronic bronchitis (bronchietasis) with an aerosolized antibiotic” (Chiron Corporation, priority 1998, dated 2002).
Like-named read-outs stand apart in the source and are kept apart here.

Assays:
[1] = purulent sputum; cited from earlier work
[2] = test system: Gram-negative bacteria; conditions: cited from earlier work
[3] = test system: P. aeruginosa isolates; conditions: initial sputum cultures, CF patients, 1993; cited from earlier work
[4] = test system: P. aeruginosa; conditions: CF patients, 300 mg inhaled twice daily, cited from earlier work
[5] = test system: P. aeruginosa; experiment: Placebo-controlled clinical study in bronchiectasis: sputum P. aeruginosa density and microbiological response; type: in vivo, Pseudomonas aeruginosa
Method: A placebo-controlled, double-blind, randomized study was conducted to evaluate the microbiological efficacy and safety of inhaled tobramycin for treatment of patients with bronchiectasis and P. aeruginosa. […] The change in P. aeruginosa density in sputum was measured at Weeks 2, 4, and 6 (2 weeks post-treatment). Clinicians assessed patients' general medical condition at Week 6. Safety parameters included adverse events, serum chemistry, and airway reactivity. […] At Week 6, P. aeruginosa was eradicated in 35% of TSI-treated patients but was detected in all placebo patients. […] Few patients withdrew due to adverse events. TSI holds promise as a therapy for patients with bronchiectasis. The study was conducted as follows: […] Patients were excluded if they had CF, a diagnosis of allergic bronchopulmonary aspergillosis, an acute pulmonary process requiring medical intervention as indicated by a new infiltrate on a chest radiograph, significant recent hemoptysis, or had received antibiotics within two weeks of the screening visit. Eligible patients were randomly assigned in blocks of two to parallel groups at each study center to receive either TSI or placebo. […] At all study visits, vital signs were measured, adverse events were recorded, and a sputum sample was collected for quantitative microbiology and susceptibility testing. […] At Week 4, airway reactivity was again monitored, a medical exam was performed, and laboratory tests that were performed at screening were repeated. […] The primary efficacy endpoint was the change in P. aeruginosa density (expressed as log10 CFU/g sputum) from baseline to Week 4. […] (2) an investigator's assessment of change in the patient's general medical condition (“improved” or “not improved”) throughout the study (recorded at Week 6); (3) the percent change in FEV1% predicted and in forced vital capacity (FVC) % predicted from Week 0 to Week 4. […] P. aeruginosa was considered eradicated if it was not detected at Week 6 or if the patient was unable to produce a sputum sample at Week 6 and P. aeruginosa was not isolated at Week 4. […]

[6] = test system: P. aeruginosa; conditions: cited from earlier work
[7] = 71 CF patients, 600 mg tid aerosolized

NC[C@H]1O[C@H](O[C@H]2[C@H](O)[C@@H](O[C@H]3O[C@H](CO)[C@@H](O)[C@H](N)[C@H]3O)[C@H](N)C[C@@H]2N)[C@H](N)C[C@@H]1O [tobramycin]
higher concentrations required in the sputum to overcome inhibitory effects [1]: 5-10 ×
concentrations effective in inhibiting the growth of many Gram-negative bacteria [2]: < 4 µg/mL
isolates with MICs <16 μg/mL [3]: 90%
isolates with MICs ≦128 μg/mL [3]: 98%
average decrease in P. aeruginosa density ([4]; 28 days on/28 days off, Week 0 to Week 20): 0.8 log10
average decrease in P. aeruginosa density ([4]; Week 0 to Week 4): 1.9 log10
antimicrobial efficacy relative to cystic fibrosis patients ([5]; bronchiectasis versus cystic fibrosis): greater than 10,000 fold
factor by which colony forming units (CFU) of P. aeruginosa are decreased ([5]; in some patients, endobronchial administration): ≥ 10^6
bronchiectasis patients with complete eradication ([5]; summary statement): 20%
spirometry [6, 7]: improved spirometry
sputum density of P. aeruginosa [6, 7]: significant reduction
emergence of P. aeruginosa strains highly resistant to tobramycin (MIC >128 μg/mL) ([6]; versus placebo): comparable in the placebo and treatment groups
